Measured values from patent publication US20050282743A1, “Molecular interactions in cells” (Arbor Vita Corporation, priority 2001, published 2005).
Ends that are not written are not given here. Peptide text beside a SMILES is read from it. * marks the point of attachment. Biotin = O=C1N[C@H]2[C@H](CS[C@H]2CCCCC(=O)*)N1

Assays:
Test in all cases: G' assay (10 uM PL peptide), results of TABLE 7 and TABLE 12
Type in all cases: binding
[1] = molecular target: T1, PDZ protein (GST-PDZ fusion) (Homo sapiens, UniProt Q96JH8); settings: PDZ FLJ 10324, PDZ Domain 1
T1 construct: made in house; host or cells: E. coli (DH5alpha, BL21 or JM109)
T1 sequence (Q96JH8 1-1075): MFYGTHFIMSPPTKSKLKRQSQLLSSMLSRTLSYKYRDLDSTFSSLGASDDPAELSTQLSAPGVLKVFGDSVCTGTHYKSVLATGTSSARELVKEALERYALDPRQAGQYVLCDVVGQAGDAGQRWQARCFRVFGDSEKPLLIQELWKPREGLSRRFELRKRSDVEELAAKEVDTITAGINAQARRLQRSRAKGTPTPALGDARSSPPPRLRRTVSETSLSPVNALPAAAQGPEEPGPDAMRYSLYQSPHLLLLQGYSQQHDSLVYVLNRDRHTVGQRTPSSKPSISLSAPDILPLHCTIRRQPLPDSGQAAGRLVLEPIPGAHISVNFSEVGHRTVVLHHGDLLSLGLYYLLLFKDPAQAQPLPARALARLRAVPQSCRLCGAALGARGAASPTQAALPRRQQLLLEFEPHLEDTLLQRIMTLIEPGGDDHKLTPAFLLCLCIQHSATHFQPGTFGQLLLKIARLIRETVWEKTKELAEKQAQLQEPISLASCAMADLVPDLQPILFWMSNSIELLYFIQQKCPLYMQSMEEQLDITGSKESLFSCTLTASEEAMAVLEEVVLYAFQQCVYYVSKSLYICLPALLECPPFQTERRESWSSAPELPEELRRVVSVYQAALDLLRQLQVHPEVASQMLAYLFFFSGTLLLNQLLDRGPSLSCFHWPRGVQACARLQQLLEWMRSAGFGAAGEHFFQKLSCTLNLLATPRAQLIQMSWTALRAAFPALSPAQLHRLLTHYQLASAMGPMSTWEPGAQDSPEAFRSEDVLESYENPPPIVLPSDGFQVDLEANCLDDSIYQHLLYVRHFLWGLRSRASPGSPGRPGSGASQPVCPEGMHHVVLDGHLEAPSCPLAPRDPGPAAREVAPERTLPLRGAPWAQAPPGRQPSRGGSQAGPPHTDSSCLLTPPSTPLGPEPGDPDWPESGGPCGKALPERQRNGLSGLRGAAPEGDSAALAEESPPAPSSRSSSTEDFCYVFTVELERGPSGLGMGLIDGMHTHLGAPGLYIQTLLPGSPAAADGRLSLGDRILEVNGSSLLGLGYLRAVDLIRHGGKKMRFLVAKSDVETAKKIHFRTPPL
Outline: (§1)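 Same steps as the G-zero format, apart from a peptide concentration of 10 uM in place of 20 uM in step 2. Amino-terminally biotinylated PL peptides bind GST-PDZ fusions, and retained peptide is quantified by 450 nm absorbance.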

[2] = molecular target: T2, PDZ protein (GST-PDZ fusion) (Homo sapiens, UniProt Q6P0Q8)
T2 construct: made in house; host or cells: E. coli (DH5alpha, BL21 or JM109)
T2 sequence (Q6P0Q8 whole entry, the tested form may be a part): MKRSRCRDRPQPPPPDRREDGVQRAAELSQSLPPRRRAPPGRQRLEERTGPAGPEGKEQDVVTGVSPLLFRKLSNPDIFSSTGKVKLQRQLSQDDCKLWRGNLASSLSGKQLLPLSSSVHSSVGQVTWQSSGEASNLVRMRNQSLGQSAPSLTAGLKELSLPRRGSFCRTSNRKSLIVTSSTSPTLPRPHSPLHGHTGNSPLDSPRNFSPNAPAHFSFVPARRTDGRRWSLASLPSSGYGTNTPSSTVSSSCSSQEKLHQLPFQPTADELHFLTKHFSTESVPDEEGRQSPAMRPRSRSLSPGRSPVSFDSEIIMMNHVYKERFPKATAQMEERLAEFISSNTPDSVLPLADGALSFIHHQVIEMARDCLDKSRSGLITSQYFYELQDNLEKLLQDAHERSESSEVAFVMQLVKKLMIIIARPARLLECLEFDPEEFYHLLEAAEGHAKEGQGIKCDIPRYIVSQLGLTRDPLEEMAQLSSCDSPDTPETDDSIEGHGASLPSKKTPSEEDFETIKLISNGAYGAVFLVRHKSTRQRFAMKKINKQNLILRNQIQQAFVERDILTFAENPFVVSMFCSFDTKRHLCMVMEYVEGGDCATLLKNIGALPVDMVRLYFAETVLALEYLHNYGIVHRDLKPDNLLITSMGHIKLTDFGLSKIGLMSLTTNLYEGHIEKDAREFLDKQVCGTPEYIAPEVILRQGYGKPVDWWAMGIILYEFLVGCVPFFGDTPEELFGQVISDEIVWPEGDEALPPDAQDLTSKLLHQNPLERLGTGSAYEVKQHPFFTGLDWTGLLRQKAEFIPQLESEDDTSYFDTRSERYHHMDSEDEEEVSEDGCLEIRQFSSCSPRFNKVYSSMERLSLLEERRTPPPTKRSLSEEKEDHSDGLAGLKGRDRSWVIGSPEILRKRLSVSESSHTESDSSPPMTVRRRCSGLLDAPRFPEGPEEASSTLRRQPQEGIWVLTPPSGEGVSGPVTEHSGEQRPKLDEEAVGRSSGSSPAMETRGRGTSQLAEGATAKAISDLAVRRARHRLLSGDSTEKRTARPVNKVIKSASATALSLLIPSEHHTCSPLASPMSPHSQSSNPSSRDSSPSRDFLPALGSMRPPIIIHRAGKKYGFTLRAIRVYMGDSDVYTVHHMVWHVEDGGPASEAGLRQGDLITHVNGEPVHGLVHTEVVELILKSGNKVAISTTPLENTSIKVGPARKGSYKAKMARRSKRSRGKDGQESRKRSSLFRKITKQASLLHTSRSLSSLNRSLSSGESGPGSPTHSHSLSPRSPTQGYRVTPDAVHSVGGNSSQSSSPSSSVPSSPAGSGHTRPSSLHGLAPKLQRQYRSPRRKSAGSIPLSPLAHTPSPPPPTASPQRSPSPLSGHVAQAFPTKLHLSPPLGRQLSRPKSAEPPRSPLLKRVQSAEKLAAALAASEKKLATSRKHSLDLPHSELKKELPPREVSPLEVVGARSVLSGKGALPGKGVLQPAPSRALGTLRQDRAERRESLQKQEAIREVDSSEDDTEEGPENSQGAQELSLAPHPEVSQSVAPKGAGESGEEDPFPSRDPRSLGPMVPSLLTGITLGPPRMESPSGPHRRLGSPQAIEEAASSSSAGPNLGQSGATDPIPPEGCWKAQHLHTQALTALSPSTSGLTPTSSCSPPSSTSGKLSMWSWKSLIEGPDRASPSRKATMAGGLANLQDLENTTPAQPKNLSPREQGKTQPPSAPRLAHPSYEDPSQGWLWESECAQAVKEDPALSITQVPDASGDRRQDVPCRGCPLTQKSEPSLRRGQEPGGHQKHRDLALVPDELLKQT
Outline: as §1

[3] = molecular target: T3, PDZ protein (GST-PDZ fusion) (Homo sapiens, UniProt Q02410)
T3 construct: made in house; host or cells: E. coli (DH5alpha, BL21 or JM109)
T3 sequence (Q02410 1-837): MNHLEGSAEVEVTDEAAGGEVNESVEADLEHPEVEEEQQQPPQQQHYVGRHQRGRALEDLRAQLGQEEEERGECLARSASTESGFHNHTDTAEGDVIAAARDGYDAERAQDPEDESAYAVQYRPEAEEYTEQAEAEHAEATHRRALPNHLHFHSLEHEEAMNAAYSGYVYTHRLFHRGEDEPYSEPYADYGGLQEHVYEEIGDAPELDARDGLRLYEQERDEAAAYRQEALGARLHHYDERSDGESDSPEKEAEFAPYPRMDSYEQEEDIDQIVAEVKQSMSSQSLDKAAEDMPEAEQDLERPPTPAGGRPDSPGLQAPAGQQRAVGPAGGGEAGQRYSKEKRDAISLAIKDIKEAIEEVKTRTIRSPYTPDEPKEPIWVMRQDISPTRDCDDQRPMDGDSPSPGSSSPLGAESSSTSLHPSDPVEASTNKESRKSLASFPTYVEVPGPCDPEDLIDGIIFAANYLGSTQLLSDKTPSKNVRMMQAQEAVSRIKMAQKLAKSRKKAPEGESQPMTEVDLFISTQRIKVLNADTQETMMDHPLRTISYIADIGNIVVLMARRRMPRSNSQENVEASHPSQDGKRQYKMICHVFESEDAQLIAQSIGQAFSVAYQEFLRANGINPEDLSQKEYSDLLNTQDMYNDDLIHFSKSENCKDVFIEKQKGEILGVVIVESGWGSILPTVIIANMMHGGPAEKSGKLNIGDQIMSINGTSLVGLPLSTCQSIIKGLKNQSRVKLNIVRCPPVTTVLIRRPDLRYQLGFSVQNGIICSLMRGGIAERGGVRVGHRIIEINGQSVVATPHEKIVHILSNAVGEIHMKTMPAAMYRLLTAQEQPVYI
Outline: as §1

Molecule	Classification [1]	Classification ([2]; PDZ KIAA807)	Classification ([2]; PDZ KIAA0807(S), PDZ Domain 1)	Classification ([3]; PDZ Mint 1, PDZ Domain 1, 2)	further results
CC(C)C[C@H](NC(=O)CNC(=O)[C@@H](NC(=O)[C@H](CO)NC(=O)[C@H](CC(N)=O)NC(=O)[C@H](Cc1ccccc1)NC(=O)CNC(=O)[C@H](C)NC(=O)[C@H](C)NC(=O)[C@H](Cc1ccccc1)NC(=O)[C@@H](NC(=O)CCCC[C@@H]1SC[C@@H]2NC(=O)N[C@@H]21)[C@@H](C)O)[C@@H](C)O)C(=O)N1CCC[C@H]1C(=O)N[C@@H](Cc1c[nH]cn1)C(=O)N[C@@H](CO)C(=O)N[C@H](C(=O)N[C@H](C(=O)N[C@@H](CCCNC(=N)N)C(=O)N[C@H](C(=O)O)C(C)C)[C@@H](C)O)[C@@H](C)O [Neuroligin] (Biotin-TFAAGFNSTGLPHSTTRV-OH; C-terminus assumed)	1 (A450 nm 0-1)	3 (A450 nm 2-3)		1 (A450 nm 0-1)	
CC(C)C[C@H](NC(=O)[C@H](C)NC(=O)[C@H](CO)NC(=O)CNC(=O)[C@@H](NC(=O)CCCC[C@@H]1SC[C@@H]2NC(=O)N[C@@H]21)[C@@H](C)O)C(=O)N[C@@H](CCC(N)=O)C(=O)N[C@@H](C)C(=O)N[C@@H](Cc1c[nH]c2ccccc12)C(=O)N[C@@H](CCCNC(=N)N)C(=O)N[C@@H](Cc1c[nH]cn1)C(=O)N[C@H](C(=O)N[C@@H](CO)C(=O)N[C@@H](CCCNC(=N)N)C(=O)N[C@@H](CCC(N)=O)C(=O)N[C@@H](C)C(=O)N[C@H](C(=O)N[C@@H](CCC(=O)O)C(=O)N[C@@H](CO)C(=O)N[C@H](C(=O)N[C@H](C(=O)O)C(C)C)[C@@H](C)O)[C@@H](C)O)[C@@H](C)O [HPV E6 #66 (modified)] (Biotin-TGSALQAWRHTSRQATESTV-OH; C-terminus assumed)	1 (A450 nm 0-1)		4 (A450 nm 3-4)	1 (A450 nm 0-1)	Classification ([2]; PDZ KIAA807, PDZ Domain not given): 2 (A450 nm 1-2); Classification ([3]; PDZ Mint 1, PDZ Domain 2): 1 (A450 nm 0-1)
SLKPGTVLPPPPYRHRNTVV (Biotin-SLKPGTVLPPPPYRHRNTVV) [ErbB-4 receptor]	1 (A450 nm 0-1)				
CC[C@H](C)[C@H](NC(=O)[C@H](C)NC(=O)[C@H](CC(C)C)NC(=O)[C@H](Cc1c[nH]c2ccccc12)NC(=O)[C@H](Cc1c[nH]cn1)NC(=O)[C@H](CCC(N)=O)NC(=O)[C@H](CC(C)C)NC(=O)[C@H](CCC(N)=O)NC(=O)[C@H](Cc1ccccc1)NC(=O)[C@H](CCC(N)=O)NC(=O)[C@H](CCCNC(=N)N)NC(=O)[C@@H](NC(=O)[C@H](CC(=O)O)NC(=O)[C@H](CCCNC(=N)N)NC(=O)[C@H](CCC(N)=O)NC(=O)[C@H](C)NC(=O)[C@@H](NC(=O)[C@H](CC(C)C)NC(=O)[C@H](Cc1c[nH]cn1)NC(=O)[C@H](Cc1c[nH]cn1)NC(=O)CCCC[C@@H]1SC[C@@H]2NC(=O)N[C@@H]21)C(C)C)[C@@H](C)CC)C(=O)O [noradrenaline transporter] (Biotin-HHLVAQRDIRQFQLQHWLAI-OH; C-terminus assumed)	3 (A450 nm 2-3)			3 (A450 nm 2-3)	
CC[C@H](C)[C@H](NC(=O)[C@H](CCC(N)=O)NC(=O)CCCC[C@@H]1SC[C@@H]2NC(=O)N[C@@H]21)C(=O)N[C@@H](CO)C(=O)N1CCC[C@H]1C(=O)NCC(=O)NCC(=O)N[C@@H](CC(C)C)C(=O)N[C@@H](CCC(=O)O)C(=O)N1CCC[C@H]1C(=O)N1CCC[C@H]1C(=O)N[C@@H](CO)C(=O)N[C@@H](CCC(=O)O)C(=O)N[C@@H](CCCCN)C(=O)N[C@@H](Cc1c[nH]cn1)C(=O)N[C@@H](Cc1ccccc1)C(=O)N[C@@H](CCCNC(=N)N)C(=O)N[C@@H](CCC(=O)O)C(=O)N[C@H](C(=O)N[C@@H](CCC(=O)O)C(=O)N[C@H](C(=O)O)C(C)C)[C@@H](C)O [Tax]	1 (A450 nm 0-1)				
GPVPGEPAKPKTSAHHATFV (Biotin-GPVPGEPAKPKTSAHHATFV)	1 (A450 nm 0-1)				

More lines, main results first:

Classification [1]	Classification ([2]; PDZ KIAA807)	Classification ([2]; PDZ KIAA0807(S), PDZ Domain 1)	Molecule	Classification ([3]; PDZ Mint 1, PDZ Domain 1, 2)	further results
1 (A450 nm 0-1)			CC[C@H](C)[C@H](NC(=O)[C@H](CCC(=O)O)NC(=O)[C@H](CC(N)=O)NC(=O)[C@H](CCCNC(=N)N)NC(=O)[C@H](Cc1ccccc1)NC(=O)[C@H](CC(N)=O)NC(=O)[C@H](CO)NC(=O)[C@H](CC(N)=O)NC(=O)[C@H](CCC(=O)O)NC(=O)[C@H](CO)NC(=O)[C@H](CC(=O)O)NC(=O)[C@H](CO)NC(=O)[C@@H](NC(=O)[C@@H](NC(=O)[C@H](CC(=O)O)NC(=O)[C@H](CCCCN)NC(=O)CCCC[C@@H]1SC[C@@H]2NC(=O)N[C@@H]21)[C@@H](C)CC)[C@@H](C)O)C(=O)N[C@@H](CCC(N)=O)C(=O)N[C@@H](CO)C(=O)N[C@@H](CC(C)C)C(=O)N[C@H](C(=O)O)C(C)C [CD95] (Biotin-KDITSDSENSNFRNEIQSLV-OH; C-terminus assumed)		
5 (A450 nm of 4 more than 2× repeated)	1 (A450 nm 0-1)	1 (A450 nm 0-1)	ELLQFCRTPNPALKNGQYWV (Biotin-ELLQFCRTPNPALKNGQYWV)	5 (A450 nm of 4 more than 2× repeated)	Classification ([3]; PDZ Mint 1, PDZ Domain 1): 2 (A450 nm 1-2); Classification ([3]; PDZ Mint 1, PDZ Domain 2): 5 (A450 nm of 4 more than 2× repeated)
5 (A450 nm of 4 more than 2× repeated)	4 (A450 nm 3-4)	4 (A450 nm 3-4)	CC(C)C[C@H](NC(=O)[C@H](Cc1c[nH]c2ccccc12)NC(=O)[C@H](Cc1c[nH]cn1)NC(=O)[C@H](CCCNC(=N)N)NC(=O)[C@H](CC(C)C)NC(=O)[C@@H](NC(=O)[C@H](Cc1ccccc1)NC(=O)[C@H](CCC(N)=O)NC(=O)[C@H](CCCNC(=N)N)NC(=O)[C@@H](NC(=O)[C@H](CCC(=O)O)NC(=O)CNC(=O)[C@H](CCCNC(=N)N)NC(=O)[C@H](CC(=O)O)NC(=O)[C@@H](NC(=O)[C@H](CC(C)C)NC(=O)[C@H](CCC(=O)O)NC(=O)[C@H](CCCNC(=N)N)NC(=O)CCCC[C@@H]1SC[C@@H]2NC(=O)N[C@@H]21)C(C)C)C(C)C)[C@@H](C)O)C(=O)N[C@@H](CCCCN)C(=O)N[C@H](C(=O)O)C(C)C [Dopamine transporter (Na+-dependent)] (Biotin-RELVDRGEVRQFTLRHWLKV-OH; C-terminus assumed)		
1 (A450 nm 0-1)			LASKSAEEGKQIPDSLSTDL (Biotin-LASKSAEEGKQIPDSLSTDL) [Dock2]		
